Here are results for 23 molecules from patent US6787125B1, “Compound screening method” (priority 1999, dated 2004).

Data set [1] has as its system C. elegans pharynx. The following applies: Kerr et al.; cited from earlier work.
The subject of data set [2] is C. elegans pharynx. In words: Pharynx pumping assay (calcein-AM), strain not specified: dilution series, insecticides, Tocris library. The class given is in vivo. The following applies: for effect of compounds of known insecticidal activity on the pharynx pumping rate: FIGS. 18 to 21; for effect on pharynx pumping: general statement. How it is done: (§1) The pumping rate of the pharynx is measured indirectly by adding a marker molecule precursor such as calcein-AM to the medium and measuring the formation of marker dye in the C. elegans gut. Calcein-AM is cleaved by esterases present in the C. elegans gut to release calcein, which is a fluorescent molecule. […] Therefore by measuring the accumulation of calcein in the nematode gut, detectable by fluorescence, it is possible to determine the pumping rate of the pharynx.
(§2) To perform the pharynx pumping screen with calcein-AM, a concentration of between 1 and 100 μM calcein-AM is added into the medium. Preferably 5 to 10 μM calcein-AM is used. Fluorescence is measured using a multi-well plate reader (Victor2, Wallac Oy, Finland) with following settings: Ex/Em=485/530.
To determine the sensitivity of the pharynx pumping assay, dilution series were made for some chemical substances. These include the chemicals clomipramine, tamoxifen, BP554, pimazide and thapsigargin. A concentration range was made from less than 1 μM up to 100 μM, and the pumping assay was repeated as described in previous examples.

For data set [3], the system named is wild-type worms. In words: Movement assay (autofluorescence), wild-type worms. The data set is classed as in vivo, C. elegans. As to conditions: for effect on movement of wild-type worms, compound alone: FIG. 8, 100% represents normal movement of wild-type worms. On the procedure:
(§3) Advanced multi-well plate readers are able to detect sub-regions of the wells of multi-well plates. By using these plate readers it is possible to take measurements in selected areas of the surface of the wells of the multi-well plates. If the area of measurement is centralized, so that only the middle of the well is measured, a difference in nematode autofluorescence (fluorescence which occurs in the absence of any external marker molecule) or optical density can be observed in the wells containing nematodes that move normally as compared to wells containing nematodes that are defective for movement. For the wells containing the nematodes that move normally, a low level of autofluorescence or optical density will be observed, whilst a high level of autofluorescence or optical density can be observed in the wells that contain the nematodes that are defective in movement. Optical density is measured using a variation of the platelet aggregation assay, which is well known in the art. Using the MRX revelation device from Dynex (USA), optical density can be measured at multiple points per well, showing the precipitation pattern of the nematodes.
This is because the mutant is mutated in the acetylcholine esterases, resulting in high concentrations of acetylcholine in the synapses. Neostigmine, a well known acetylcholine esterase inhibitor, was added to wild-type worms distributed over the wells of a multi-well plate and submitted to the movement assay after approximately 2 hours.
As receptor antagonist, hexamethonium will also result in a decrease of movement, as it prevents proper signalling.
In another experiment, wild-type worms were contacted with inhibitory concentrations of neostigmine to prevent movement. After a small incubation period, various concentrations of hexamethonium were added and the wells were submitted to the movement assay (measurement of autofluorescence). […] At very high concentrations of hexamethonium (although lower than the concentrations shown in last panel) a toxic effect is observed, resulting in a decrease in movement. This toxic effect is probably due to the presence of high concentrations of both neostigmine and hexamethonium.

For data set [4], the system named is mutant C. elegans strain with a constitutively pumping pharynx. As to the kind of experiment: Pharynx pumping assay (calcein-AM fluorescence), screen for inhibitors. The data set is classed as in vivo. As to conditions: compounds and worms incubated approximately 1 hour, then calcein-AM, one further hour.
Excerpt: Depending on the specific assay which it is desired to perform, different C. elegans strains can be used. Screens to select for chemical substances inhibiting the pumping rate of the C. elegans pharynx are generally performed with mutant C. elegans strains which have a constitutively pumping pharynx. Wild-type worms can also be used in this screen, but the mutants worms are preferred. […] The selected mutant C. elegans with the constitutively pumping pharynx pumps medium into the gut at a constant rate and reduction/rescue of this phenotype can easily be scored, which facilitates the detection and selection of chemical substances.
as §1, §2
160 well known drugs selected from the pharmacopoeia were used in a screen to test the performance of the pharynx pumping method. The drugs tested belong to a variety of categories, which included analgesics, antidiabetics, antiarrythmics, calcium channel blockers, diuretics, cholinesterase inhibitors, proton pump inhibitors and antidepressants.
The drugs were randomly distributed over the wells of two 96-well multi-well plates. The pumping rate of the C. elegans pharynx was measured using calcein-AM as described in Example 2.
In a first assay, the substrate calcein-AM was added to the medium at the same time as the worms and the compounds. The fluorescence was measured after approximately one hour.
In a variation of this protocol, compounds and worms are added to the medium first and incubated for approximately 1 hour. After this incubation period that allowed for the chemical substances to activate or to inhibit the pumping rate of the pharynx, calcein-AM was added. The plates where then further incubated for one hour prior to fluorescence measurement in the microtiter plate reader.

For data set [5], the system named is ace-1; ace-2 double mutant. In words: Movement assay, ace-1; ace-2 double mutant. The class given is in vivo, C. elegans. The following applies: increasing concentrations of hexamethonium, absence of neostigmine; compared with the neostigmine experiment. On the procedure: An analogous experiment was performed with the ace-1; ace-2 double mutant. In this experiment, increasing concentrations of hexamethonium were added to the wells in the absence of neostigmine.

The subject of data set [6] is C. elegans. The class given is in vivo. As to conditions: for movement assay reading, first number column (no head printed): Table 10 c3; for movement assay reading, second number column (no head printed): Table 10 c4; for hit call: detectable change in the movement behaviour: Table 10 c7.
Excerpt: Nematode worms that are placed in liquid culture will move in such a way that they maintain a more or less even (or homogeneous) distribution throughout the culture. Nematode worms that are defective in movement will precipitate to the bottom in liquid culture.
as §3
In an adaptation of the movement assay, autofluorescence or optical density measurements can be taken in two areas of the surface of the well, one measurement in the centre of the well, and on measurement on the edge of the well. Comparing the two measurements gives analogous results as in the case if only the centre of the well is measured but the additional measurement of the edge of the well results in an extra control and somewhat more distinct results.

The mark [7] stands for this setting: concentration range from less than 1 μM up to 100 μM.

Regarding `NCCc1c[nH]c2ccc(O)cc12` [serotonin], the “effect on pumping, seen as fluorescence of GFP-calmodulin” value in data set [1] was “enhancers of pumping”.
On to `c1ccc(N2CCN(CCCOc3ccc4c(c3)OCO4)CC2)cc1` [BP554], for which the “effect on pharynx pumping rate, dose-response curve” value (from here on “effect on pharynx pumping rate”) in data set [2] (setting [7]) is “inhibitors”.
With `CN(C)C(=O)Oc1cccc([N+](C)(C)C)c1` [neostigmine, Neostigmine], the “effect on movement of wild-type worms, compound alone” value in data set [3] is on record as “clear decrease in movement”.
As for `COP(=O)(OC)C(O)C(Cl)(Cl)Cl` (stereo not shown) [Metrifonate], in data set [4], the “activity on the pharynx pumping rate found with the variation of the protocol” value (shortened to “activity … of the protocol”) is listed as “detection”.
Ivermectin: in data set [2], the “effect of compounds of known insecticidal activity on the pharynx pumping rate” value (from here on “effect … on the pharynx pumping rate”) is reported as “reduction in the pharynx pumping rate”. Moreover, the “effect on pumping, seen as fluorescence of GFP-calmodulin” value in data set [1] is “inhibitors of pumping”.
Consider `N=C(N)S/C=C\C(=O)O` [ZAPA], for which the “activity … of the protocol” value in data set [4] is listed as “detection”.
Turning to Picrotoxin, in data set [2], the “effect … on the pharynx pumping rate” value was “reduction in the pharynx pumping rate”.
As to `C[N+](C)(C)CCCCCC[N+](C)(C)C` [hexamethonium, Hexamethonium], in data set [3], the “effect on movement of wild-type worms, compound alone” value is “represses the movement of wild-type worms, but significant less than neostigmine”. In data set [3] (increasing concentrations of hexamethonium), the “movement of wild-type worms in presence of inhibitory concentrations of neostigmine” value was “more movement”. For the same molecule, in data set [3] (very high concentrations of hexamethonium together with neostigmine), the “toxic effect in movement assay” value is recorded as “toxic effect”. In addition, in data set [5], the “movement of ace-1; ace-2 double mutant” value is “comparable”.
Turning to `C/C=C(/C)C(=O)O[C@H]1C(C)=C2[C@H]([C@@H]1OC(=O)CCCCCCC)[C@@](C)(OC(C)=O)C[C@H](OC(=O)CCC)[C@@]1(O)[C@H]2OC(=O)[C@@]1(C)O` [Thapsigargin], the figures for the “effect on pharynx pumping rate” value in data set [2] (at low concentration) and in data set [2] (setting [7]) were “enhancement of the pumping” and “decrease of the pumping rate”, respectively. The “effect on pharynx pumping” value in data set [2] is listed as “decrease in the pharynx pumping rate”. Moreover, the effect on movement entry in data set [3] (observation, method not stated) is “decreased movement”.
For `CN(C)CCCN1c2ccccc2CCc2ccc(Cl)cc21` [Clomipramine], the “effect on pharynx pumping rate” value in data set [2] (setting [7]) is recorded as “enhancer”.
Regarding `C[S+](C)[O-]` [DMSO], the “toxic effect in pharynx pumping dose-response curve” value in data set [2] (solvent, at higher concentrations (FIG. 5)) is on record as “toxic effect”.
As to `CN1[C@@H]2CC[C@H]1C[C@@H](OC(=O)[C@H](CO)c1ccccc1)C2` [L-Hyoscyamine], in data set [4], the “activity … of the protocol” value was “detection”.
Turning to `c1ccc(-c2cnc(-c3ccccc3)o2)cc1` [2,5-diphenyloxazole], the “effect on pumping rate of the pharynx” value in data set [2] (both in wild-type worms and in constitutive pumping worms) was “inhibitor of the pumping rate of the pharynx”.
`C=C(C)[C@H]1Cc2c(ccc3c2O[C@@H]2COc4cc(OC)c(OC)cc4[C@@H]2C3=O)O1` [Rotenone]: the “effect … on the pharynx pumping rate” value in data set [2] is recorded as “reduction in the pharynx pumping rate”.
As for `ClC1=C(Cl)[C@]2(Cl)[C@@H]3[C@@H]4C[C@@H]([C@H]5O[C@@H]45)[C@@H]3[C@@]1(Cl)C2(Cl)Cl` [Dieldrin], the “effect … on the pharynx pumping rate” value in data set [2] is “reduction in the pharynx pumping rate”.
With `CN1[C@@H]2CC[C@H]1C[C@@H](OC(=O)C(CO)c1ccccc1)C2` (stereo partly shown) [Atropine], the “activity … of the protocol” value in data set [4] is “detection”.
As for `CN(C)CCC=C1c2ccccc2COc2ccccc21` [Doxepin], in data set [2], the “effect on pharynx pumping” value is recorded as “enhancer of pharynx pumping”.
Regarding `N[C@@H](CCCP(=O)(O)O)C(=O)O` [L-AP5], in data set [6], the “movement assay reading, first number column (no head printed)” value is given as 21446; the “movement assay reading, second number column (no head printed)” value was found to be 42393; the “hit call: detectable change in the movement behaviour” value (from here on “hit call: detectable change”) is recorded as “HIT”.
In the case of `N[C@@H](CP(=O)(O)O)C(=O)O` [L-AP3], in data set [6], the “movement assay reading, first number column (no head printed)” value came out at 22073; the “movement assay reading, second number column (no head printed)” value amounted to 41858; the “hit call: detectable change” value is recorded as “HIT”.
For `CC(C)(Oc1ccc(Cl)cc1)C(=O)O` [Clofibric acid] the same measures were 22933, 40916 and “HIT”.
Regarding `CC/C(=C(\c1ccccc1)c1ccc(OCCN(C)C)cc1)c1ccccc1` [Tamoxifen], the “effect on pharynx pumping rate” value in data set [2] (setting [7]) is “inhibitors”.
With `N[C@H](C(=O)O)[C@H](CC(=O)O)c1ccc(Cl)cc1` [(2S,3R)-Chloropheg], in data set [6], the “movement assay reading, first number column (no head printed)” value is reported as 21514; the “movement assay reading, second number column (no head printed)” value was 48736; the “hit call: detectable change” value is reported as “HIT”.
The matching figures for `O=C(O)c1cc2ccccc2[nH]1` [Indole-2-carboxylic acid]: 19362, 43403 and “HIT”.
